This passage reports Ki results from BindingDB's records for doi:10.1016/j.ejmech.2020.112529 (Jagiellonian University, 2020).

The term Ki denotes a dissociation constant, usually derived from enzyme kinetics or from competition with a known ligand.

The target in the assay is 5-HT2A receptor (Homo sapiens). Description: Displacement of [3H]-Ketanserin from human 5-HT2A receptor expressed in CHO-K1 cells incubated for 1 hr by microbeta counting method. In general terms: In a radioligand displacement assay an active substance lowers the binding of a labelled ligand.
Compound `CC(Oc1ccccc1Cl)c1nc(N)nc(N2CCN(C)CC2)n1` (configuration not stated) showed a Ki of 1830 nM.
The figure for `CN1CCN(c2nc(N)nc(CCCOc3cc(Cl)ccc3Cl)n2)CC1` is 1460 nM.
Then `CC(Oc1cccc(Cl)c1Cl)c1nc(N)nc(N2CCN(C)CC2)n1` (configuration not stated), with 268 nM.
The figure for `CCCCC(Oc1cc(Cl)ccc1Cl)c1nc(N)nc(N2CCN(C)CC2)n1` (configuration not stated) is 431 nM; for `CN1CCN(c2nc(N)nc(CCCOc3cccc(Cl)c3Cl)n2)CC1` it is 649 nM; for `CN1CCN(c2nc(N)nc(CCCOc3ccc(Cl)c(Cl)c3)n2)CC1` it is 906 nM.
`CCCCC(Oc1cc(Cl)cc(Cl)c1)c1nc(N)nc(N2CCN(C)CC2)n1` (configuration not stated) showed a Ki of 839 nM.
